Laboratory results from PubChem BioAssay (NCI).
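Dose response: 5 concentrations. Exposure: 48 h. Format: 96-well plates. Endpoint: linear interpolation; highest concentration if not reached. GI50 marks 50% less growth. TGI is the concentration that stops growth completely.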

Assays:
Assay in all cases: inhibition of tumour cell growth, NCI panel, 48 h
[1] = tested on: SNB-75 CNS
[2] = tested on: HOP-92 NSCLC
[3] = tested on: OVCAR-3 ovarian
[4] = tested on: K-562 leukemia
[5] = tested on: UACC-62 melanoma
[6] = tested on: SF-295 CNS
[7] = tested on: HCT-116 colon
[8] = tested on: HL-60(TB) leukemia
[9] = tested on: CCRF-CEM leukemia
[10] = tested on: MCF7 breast
[11] = tested on: HCC-2998 colon
[12] = tested on: BT-549 breast
[13] = tested on: LOX IMVI melanoma
[14] = tested on: PC-3 prostate
[15] = tested on: MOLT-4 leukemia
[16] = tested on: TK-10 renal
[17] = tested on: RPMI-8226 leukemia
[18] = tested on: IGROV1 ovarian
[19] = tested on: DU-145 prostate
[20] = tested on: SW-620 colon
[21] = tested on: SK-OV-3 ovarian
[22] = tested on: COLO 205 colon
[23] = tested on: OVCAR-5 ovarian
[24] = tested on: UACC-257 melanoma
[25] = tested on: SK-MEL-28 melanoma
[26] = tested on: RXF 393 renal
[27] = tested on: KM12 colon
[28] = tested on: HOP-62 NSCLC
[29] = tested on: A549 NSCLC
[30] = tested on: U251 CNS
[31] = tested on: MDA-MB-435
[32] = tested on: SN12C renal
[33] = tested on: MALME-3M melanoma
[34] = tested on: 786-0 renal
[35] = tested on: HS 578T breast
[36] = tested on: NCI-H460 lung
[37] = tested on: SNB-19 CNS
[38] = tested on: NCI-H23 lung
[39] = tested on: SK-MEL-5 melanoma
[40] = tested on: A498 renal
[41] = tested on: T-47D breast
[42] = tested on: EKVX NSCLC
[43] = tested on: CAKI-1 renal
[44] = tested on: OVCAR-8 ovarian
[45] = tested on: NCI/ADR-RES ovarian
[46] = tested on: SF-539 CNS
[47] = tested on: HCT-15 colon
[48] = tested on: M14 melanoma
[49] = tested on: OVCAR-4 ovarian
[50] = tested on: NCI-H226 lung
[51] = tested on: SR leukemia
[52] = tested on: ACHN renal
[53] = tested on: HT29 colon
[54] = tested on: SK-MEL-2 melanoma
[55] = tested on: SF-268 CNS
[56] = tested on: MDA-MB-231 breast
[57] = tested on: UO-31 renal

## CCN(CC)CCn1c2ccc(O)cc2c2sc3cc(OC)ccc3c(=O)c21
[1]
  GI50: 2.39 µM
  TGI: 17.4 µM
[2]
  GI50: 2.58 µM
  TGI: 17 µM
[3]
  GI50: 2.19 µM
  TGI: 4.88 µM
[4]
  GI50: 1.24 µM
  TGI: 2.81 µM
[5]
  GI50: 1.89 µM
  TGI: 4.26 µM
[6]
  GI50: 5.35 µM
  TGI: 18.8 µM
[7]
  GI50: 1.07 µM
  TGI: 2.38 µM
[8]
  GI50: 1.72 µM
  TGI: 3.55 µM
[9]
  GI50: 1.09 µM
  TGI: 4.5 µM
[10]
  GI50: 1.18 µM
  TGI: 2.79 µM
[11]
  GI50: 1.47 µM
  TGI: 2.91 µM
[12]
  GI50: 6.09 µM
  TGI: 19.9 µM
[13]
  GI50: 1.21 µM
  TGI: 2.59 µM
[14]
  GI50: 1.82 µM
  TGI: 5.09 µM
[15]
  GI50: 0.389 µM
  TGI: 1.71 µM
[16]
  GI50: 9.04 µM
  TGI: 24.7 µM
[17]
  GI50: 1.95 µM
  TGI: 4.88 µM
[18]
  GI50: 1.59 µM
  TGI: 4.52 µM
[19]
  GI50: 1.71 µM
  TGI: 3.51 µM
[20]
  GI50: 0.675 µM
  TGI: 2.11 µM
[21]
  GI50: 13.4 µM
  TGI: 27.2 µM
[22]
  GI50: 3.08 µM
  TGI: 17.9 µM
[23]
  GI50: 2.22 µM
  TGI: 4.68 µM
[24]
  GI50: 2.1 µM
  TGI: 4.68 µM
[25]
  GI50: 1.8 µM
  TGI: 3.29 µM
[26]
  GI50: 1.3 µM
  TGI: 2.68 µM
[27]
  GI50: 1.84 µM
  TGI: 3.72 µM
[28]
  GI50: 6.03 µM
  TGI: 23.7 µM
[29]
  GI50: 1.63 µM
  TGI: 4.3 µM
[30]
  GI50: 1.58 µM
  TGI: 3.34 µM
[31]
  GI50: 1.64 µM
  TGI: 3.1 µM
[32]
  GI50: 5.83 µM
  TGI: 21.2 µM
[33]
  GI50: 1.87 µM
  TGI: 4.01 µM
[34]
  GI50: 1.39 µM
  TGI: 2.79 µM
[35]
  GI50: 1.95 µM
  TGI: 4.59 µM
[36]
  GI50: 1.22 µM
  TGI: 2.66 µM
[37]
  GI50: 1.51 µM
  TGI: 3.41 µM
[38]
  GI50: 1.56 µM
  TGI: 3.18 µM
[39]
  GI50: 1.74 µM
  TGI: 3.14 µM
[40]
  GI50: 3.08 µM
  TGI: 16.5 µM
[41]
  GI50: 14.2 µM
  TGI: 37.9 µM
[42]
  GI50: 1.67 µM
  TGI: 3.5 µM
[43]
  GI50: 3.73 µM
  TGI: 17 µM
[44]
  GI50: 2.1 µM
  TGI: 7.26 µM
[45]
  GI50: 1.23 µM
  TGI: 4.01 µM
[46]
  GI50: 1.76 µM
  TGI: 3.2 µM
[47]
  GI50: 1.2 µM
  TGI: 3.28 µM
[48]
  GI50: 1.64 µM
  TGI: 3.31 µM
[49]
  GI50: 1.81 µM
  TGI: 4.04 µM
[50]
  GI50: 10.4 µM
  TGI: 24.2 µM
[51]
  GI50: 1.11 µM
  TGI: 3.15 µM
[52]
  GI50: 1.13 µM
  TGI: 2.44 µM
[53]
  GI50: 1.75 µM
  TGI: 4.29 µM
[54]
  GI50: 9.15 µM
  TGI: 25.1 µM
[55]
  GI50: 7.34 µM
  TGI: 24.5 µM
[56]
  GI50: 1.61 µM
  TGI: 3.71 µM
[57]
  GI50: 1.9 µM
  TGI: 11.5 µM
